From the NIST ThermoML archive (doi:10.1016/j.jct.2017.08.004)

Test: molar heat capacity at constant pressure
Conditions: 101.33 kPa, Crystal

O[C@H]1[C@H](O)[C@@H](O)[C@H](O)[C@@H](O)[C@H]1O [cis-1,2,3,5-trans-4,6-cyclohexanehexol]
molar heat capacity at constant pressure [J/K/mol]
Conditions	Small sample (50 mg) DSC	relaxation calorimetry
268.15 K	194.88	–
269.15 K	195.58	–
270 K	–	196.73
270.15 K	196.44	–
271.15 K	197.16	–
272.15 K	197.91	–
272.17 K	–	198.87
273.15 K	198.7	199.08
274.15 K	199.42	–
275.15 K	200.19	–
276.15 K	201.09	–
277.15 K	201.63	–
278.15 K	202.4	–
279.15 K	203.19	–
280 K	–	204.22
280.15 K	203.91	–
281.15 K	204.75	–
282.15 K	205.45	–
282.18 K	–	206.06
283.15 K	206.13	–
284.15 K	206.78	–
285.15 K	207.67	–
286.15 K	208.29	–
287.15 K	208.96	–
288.15 K	209.73	–
289.15 K	210.44	–
290 K	–	211.78
290.15 K	211.29	–
291.15 K	212.09	–
292.15 K	212.8	–
292.29 K	–	213.34
293.15 K	213.54	–
294.15 K	214.44	–
295.15 K	215.31	–
296.15 K	216.01	–
297.15 K	216.77	–
298.15 K	217.6	218
299.15 K	218.39	–
300 K	–	219.42
300.15 K	219.12	–
301.15 K	219.99	–
302.15 K	220.81	–
302.4 K	–	220.86
303.15 K	221.72	–
304.15 K	222.56	–
305 K	223.54	–
305.15 K	223.48	–
306.15 K	224.53	–
307.15 K	225.41	–
308.15 K	226.47	–
309.15 K	227.45	–
310 K	228.25	–
310.15 K	228.42	–
311.15 K	229.32	–
312.15 K	230.3	–
313.15 K	231.18	–
314.15 K	232.03	–
315 K	232.85	–
